Assay results taken from the kinase profiling compilation of Christmann-Franck et al. (2016).

Legend:
Assay in all cases: KINOMEscan competition binding
Settings in all cases: compound 2.0 µM
NIM1 (human) = NIM1 (human) (UniProt Q8IY84)
NEK3 (human) = NEK3 (human) (UniProt P51956)
CDK14 (human) = CDK14 (human) (UniProt O94921)
IRAK1 (human) = IRAK1 (human) (UniProt P51617)
MAST1 (human) = MAST1 (human) (UniProt Q9Y2H9)
CLK2 (human) = CLK2 (human) (UniProt P49760)
MAP3K10 (human) = MAP3K10 (human) (UniProt Q02779)
PLK2 (human) = PLK2 (human) (UniProt Q9NYY3)
Chain of PLK2 (human) (Q9NYY3 whole entry, looked up): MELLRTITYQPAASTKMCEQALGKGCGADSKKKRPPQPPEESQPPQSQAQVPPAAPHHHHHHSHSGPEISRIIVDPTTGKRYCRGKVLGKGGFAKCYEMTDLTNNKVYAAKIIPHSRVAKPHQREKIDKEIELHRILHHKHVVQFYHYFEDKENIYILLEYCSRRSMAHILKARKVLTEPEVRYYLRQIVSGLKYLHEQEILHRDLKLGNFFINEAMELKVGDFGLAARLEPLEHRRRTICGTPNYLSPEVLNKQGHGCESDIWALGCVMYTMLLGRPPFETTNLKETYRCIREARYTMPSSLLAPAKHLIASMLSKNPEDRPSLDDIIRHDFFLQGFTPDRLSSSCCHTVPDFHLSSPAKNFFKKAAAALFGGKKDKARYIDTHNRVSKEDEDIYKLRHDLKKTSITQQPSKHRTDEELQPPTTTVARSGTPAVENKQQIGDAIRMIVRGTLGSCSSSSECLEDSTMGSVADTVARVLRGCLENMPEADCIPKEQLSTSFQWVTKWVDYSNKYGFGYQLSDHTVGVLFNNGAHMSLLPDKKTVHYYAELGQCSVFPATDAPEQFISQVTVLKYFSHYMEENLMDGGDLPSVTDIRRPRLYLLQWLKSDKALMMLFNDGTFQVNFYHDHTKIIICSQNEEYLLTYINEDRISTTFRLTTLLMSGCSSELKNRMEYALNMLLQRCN

NEK9 (human) = NEK9 (human) (UniProt Q8TD19)
PAK2 (human) = PAK2 (human) (UniProt Q13177)
PDGFRA (human) = PDGFRA (human) (UniProt P16234)
CRK2 (P.falciparum) = CRK2 (P.falciparum) (UniProt P61075)
[1] = system: EGFR (human), P00533 [A750P; 747-749 del]
PHKG2 (human) = PHKG2 (human) (UniProt P15735)
EPHA7 (human) = EPHA7 (human) (UniProt Q15375)
PIM2 (human) = PIM2 (human) (UniProt Q9P1W9)
Chain of PIM2 (human) (Q9P1W9 whole entry, looked up): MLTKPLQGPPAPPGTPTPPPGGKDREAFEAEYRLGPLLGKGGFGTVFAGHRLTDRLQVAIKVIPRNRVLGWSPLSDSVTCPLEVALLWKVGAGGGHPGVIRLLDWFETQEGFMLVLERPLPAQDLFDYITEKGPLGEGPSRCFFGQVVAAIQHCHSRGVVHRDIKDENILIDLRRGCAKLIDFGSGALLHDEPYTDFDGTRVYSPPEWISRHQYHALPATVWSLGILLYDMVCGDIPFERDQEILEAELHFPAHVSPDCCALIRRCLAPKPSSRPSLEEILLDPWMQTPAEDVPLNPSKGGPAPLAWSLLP

VRK2 (human) = VRK2 (human) (UniProt Q86Y07)
NEK11 (human) = NEK11 (human) (UniProt Q8NG66)
RPS6KA4 KD2 (human) = RPS6KA4 KD2 (human) (UniProt O75676)
Chain of RPS6KA4 KD2 (human) (O75676 whole entry, looked up): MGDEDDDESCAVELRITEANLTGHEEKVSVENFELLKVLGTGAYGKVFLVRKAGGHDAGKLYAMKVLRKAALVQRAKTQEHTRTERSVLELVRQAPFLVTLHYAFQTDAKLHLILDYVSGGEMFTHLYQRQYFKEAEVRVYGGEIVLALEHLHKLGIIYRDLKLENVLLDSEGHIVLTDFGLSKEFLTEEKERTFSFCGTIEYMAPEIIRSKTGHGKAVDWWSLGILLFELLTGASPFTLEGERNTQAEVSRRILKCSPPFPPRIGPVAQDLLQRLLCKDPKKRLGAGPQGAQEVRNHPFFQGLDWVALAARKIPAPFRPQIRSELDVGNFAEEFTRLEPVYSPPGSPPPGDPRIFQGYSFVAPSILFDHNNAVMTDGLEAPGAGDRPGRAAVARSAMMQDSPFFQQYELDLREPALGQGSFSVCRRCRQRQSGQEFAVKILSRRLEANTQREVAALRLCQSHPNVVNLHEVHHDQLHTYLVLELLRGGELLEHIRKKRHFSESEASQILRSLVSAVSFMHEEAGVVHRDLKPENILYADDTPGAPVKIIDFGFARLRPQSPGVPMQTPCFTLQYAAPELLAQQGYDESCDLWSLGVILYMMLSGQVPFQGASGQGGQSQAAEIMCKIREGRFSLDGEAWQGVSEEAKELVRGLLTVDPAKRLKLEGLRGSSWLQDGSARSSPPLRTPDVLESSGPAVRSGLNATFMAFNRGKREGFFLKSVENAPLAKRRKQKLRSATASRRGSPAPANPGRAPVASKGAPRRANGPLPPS

DCLK1 (human) = DCLK1 (human) (UniProt O15075)
RAF1 (human) = RAF1 (human) (UniProt P04049)
FER (human) = FER (human) (UniProt P16591)
MST1R (human) = MST1R (human) (UniProt Q04912)
Chain of MST1R (human) (Q04912 whole entry, looked up): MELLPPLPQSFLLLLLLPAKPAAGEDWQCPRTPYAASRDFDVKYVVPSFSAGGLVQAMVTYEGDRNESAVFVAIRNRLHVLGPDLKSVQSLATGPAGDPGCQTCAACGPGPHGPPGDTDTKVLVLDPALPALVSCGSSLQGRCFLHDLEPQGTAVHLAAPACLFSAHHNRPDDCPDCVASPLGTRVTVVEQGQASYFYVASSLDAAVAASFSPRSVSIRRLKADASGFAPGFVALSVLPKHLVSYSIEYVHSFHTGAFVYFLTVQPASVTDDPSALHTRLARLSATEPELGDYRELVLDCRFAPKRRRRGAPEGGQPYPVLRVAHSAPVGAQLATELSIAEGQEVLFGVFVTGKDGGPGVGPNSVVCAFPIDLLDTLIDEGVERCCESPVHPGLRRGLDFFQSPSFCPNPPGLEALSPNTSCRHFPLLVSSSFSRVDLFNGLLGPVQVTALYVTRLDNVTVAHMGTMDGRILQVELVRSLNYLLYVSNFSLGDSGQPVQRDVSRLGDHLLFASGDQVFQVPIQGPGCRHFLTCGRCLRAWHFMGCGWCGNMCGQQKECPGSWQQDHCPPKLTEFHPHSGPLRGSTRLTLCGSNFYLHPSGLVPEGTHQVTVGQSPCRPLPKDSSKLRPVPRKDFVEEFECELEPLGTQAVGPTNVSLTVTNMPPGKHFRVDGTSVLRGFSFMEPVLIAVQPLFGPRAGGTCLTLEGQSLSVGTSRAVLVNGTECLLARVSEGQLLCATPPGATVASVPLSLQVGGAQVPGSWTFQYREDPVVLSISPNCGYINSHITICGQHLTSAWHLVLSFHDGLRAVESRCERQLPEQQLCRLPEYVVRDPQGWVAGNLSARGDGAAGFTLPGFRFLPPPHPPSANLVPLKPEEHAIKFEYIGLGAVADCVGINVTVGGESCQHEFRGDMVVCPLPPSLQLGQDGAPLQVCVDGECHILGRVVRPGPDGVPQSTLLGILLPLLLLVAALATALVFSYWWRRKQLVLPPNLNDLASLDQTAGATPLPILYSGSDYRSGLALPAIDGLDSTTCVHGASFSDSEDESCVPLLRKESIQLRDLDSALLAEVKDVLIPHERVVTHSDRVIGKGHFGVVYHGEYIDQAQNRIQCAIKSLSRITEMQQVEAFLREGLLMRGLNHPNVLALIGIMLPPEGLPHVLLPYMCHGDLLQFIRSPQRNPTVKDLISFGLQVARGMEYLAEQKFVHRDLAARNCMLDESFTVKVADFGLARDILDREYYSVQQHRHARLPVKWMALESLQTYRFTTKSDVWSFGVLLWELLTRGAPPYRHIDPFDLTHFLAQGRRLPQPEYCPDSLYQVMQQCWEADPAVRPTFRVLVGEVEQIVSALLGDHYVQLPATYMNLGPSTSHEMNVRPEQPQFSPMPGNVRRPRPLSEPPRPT

NEK6 (human) = NEK6 (human) (UniProt Q9HC98)
MAPK12 (human) = MAPK12 (human) (UniProt P53778)
RPS6KA6 KD2 (human) = RPS6KA6 KD2 (human) (UniProt Q9UK32)
PIK3CB (human) = PIK3CB (human) (UniProt P42338)
FLT1 (human) = FLT1 (human) (UniProt P17948)
CDK7 (human) = CDK7 (human) (UniProt P50613)
SRC (human) = SRC (human) (UniProt P12931)
NTRK3 (human) = NTRK3 (human) (UniProt Q16288)
DCLK3 (human) = DCLK3 (human) (UniProt Q9C098)
Chain of DCLK3 (human) (Q9C098 whole entry, looked up): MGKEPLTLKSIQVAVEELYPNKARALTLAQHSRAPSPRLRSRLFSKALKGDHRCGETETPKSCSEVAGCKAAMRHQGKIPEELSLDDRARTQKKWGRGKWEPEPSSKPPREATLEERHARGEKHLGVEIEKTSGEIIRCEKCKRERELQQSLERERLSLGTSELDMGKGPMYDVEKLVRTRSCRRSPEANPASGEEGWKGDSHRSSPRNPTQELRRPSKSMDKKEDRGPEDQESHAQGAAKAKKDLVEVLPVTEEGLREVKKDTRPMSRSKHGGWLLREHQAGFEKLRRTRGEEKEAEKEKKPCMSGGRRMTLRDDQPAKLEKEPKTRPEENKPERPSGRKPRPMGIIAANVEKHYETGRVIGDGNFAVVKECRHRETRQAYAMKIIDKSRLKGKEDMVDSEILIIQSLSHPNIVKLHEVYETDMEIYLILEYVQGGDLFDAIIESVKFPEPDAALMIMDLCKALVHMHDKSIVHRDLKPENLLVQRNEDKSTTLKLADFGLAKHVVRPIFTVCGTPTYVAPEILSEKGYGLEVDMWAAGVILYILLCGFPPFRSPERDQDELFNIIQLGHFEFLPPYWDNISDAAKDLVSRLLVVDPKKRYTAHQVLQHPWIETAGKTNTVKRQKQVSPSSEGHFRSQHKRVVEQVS

[2] = system: FLT3 (human), P36888 [N841I]
CDK2 (human) = CDK2 (human) (UniProt P24941)
CAMK2G (human) = CAMK2G (human) (UniProt Q13555)
ULK3 (human) = ULK3 (human) (UniProt Q6PHR2)
MYLK4 (human) = MYLK4 (human) (UniProt Q86YV6)
INSRR (human) = INSRR (human) (UniProt P14616)
MAPK4 (human) = MAPK4 (human) (UniProt P31152)
ERBB4 (human) = ERBB4 (human) (UniProt Q15303)
PAK7 (human) = PAK7 (human) (UniProt Q9P286)
CAMKK1 (human) = CAMKK1 (human) (UniProt Q8N5S9)
CSNK1A1L (human) = CSNK1A1L (human) (UniProt Q8N752)

Chain of IRAK1 (human) (P51617 whole entry, looked up): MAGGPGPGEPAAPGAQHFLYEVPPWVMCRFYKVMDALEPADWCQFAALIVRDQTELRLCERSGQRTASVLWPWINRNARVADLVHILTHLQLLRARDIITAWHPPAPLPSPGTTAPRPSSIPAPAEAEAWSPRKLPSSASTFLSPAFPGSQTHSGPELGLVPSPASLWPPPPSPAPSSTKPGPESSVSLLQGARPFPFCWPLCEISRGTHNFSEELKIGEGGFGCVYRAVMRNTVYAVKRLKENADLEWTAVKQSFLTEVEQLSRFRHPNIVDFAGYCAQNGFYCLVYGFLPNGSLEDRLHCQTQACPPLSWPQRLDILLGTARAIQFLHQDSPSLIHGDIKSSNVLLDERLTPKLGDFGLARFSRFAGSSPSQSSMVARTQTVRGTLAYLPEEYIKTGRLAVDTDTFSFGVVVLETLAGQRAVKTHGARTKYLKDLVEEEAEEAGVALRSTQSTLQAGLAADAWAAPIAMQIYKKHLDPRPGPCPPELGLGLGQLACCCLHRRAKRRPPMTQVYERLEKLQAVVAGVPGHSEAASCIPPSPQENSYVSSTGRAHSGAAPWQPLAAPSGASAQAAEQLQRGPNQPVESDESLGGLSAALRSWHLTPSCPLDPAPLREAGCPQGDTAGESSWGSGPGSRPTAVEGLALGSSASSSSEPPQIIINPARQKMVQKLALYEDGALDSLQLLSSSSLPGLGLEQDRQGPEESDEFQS
Chain of NEK3 (human) (P51956 whole entry, looked up): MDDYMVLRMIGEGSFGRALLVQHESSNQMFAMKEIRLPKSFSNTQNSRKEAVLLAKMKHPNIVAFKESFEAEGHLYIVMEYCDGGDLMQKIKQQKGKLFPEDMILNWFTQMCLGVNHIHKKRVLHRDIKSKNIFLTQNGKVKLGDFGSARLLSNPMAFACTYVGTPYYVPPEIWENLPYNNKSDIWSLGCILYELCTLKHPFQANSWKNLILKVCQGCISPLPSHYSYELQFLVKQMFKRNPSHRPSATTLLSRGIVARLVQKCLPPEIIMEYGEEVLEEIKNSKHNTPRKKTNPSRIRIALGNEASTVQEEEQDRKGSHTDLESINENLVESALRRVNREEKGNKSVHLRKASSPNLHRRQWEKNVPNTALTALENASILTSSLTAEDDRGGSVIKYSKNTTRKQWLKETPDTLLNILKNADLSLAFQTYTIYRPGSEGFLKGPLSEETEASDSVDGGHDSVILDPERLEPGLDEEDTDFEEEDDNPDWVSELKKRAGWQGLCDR

N#Cc1ccc2ncnc(NCCc3ccc4ccccc4c3)c2c1
kinase still bound, per cent of control (NIM1 (human)): 82%
kinase still bound, per cent of control (NEK3 (human)): 100%
kinase still bound, per cent of control (CDK14 (human)): 100%
kinase still bound, per cent of control (IRAK1 (human)): 98%
kinase still bound, per cent of control (MAST1 (human)): 84%
kinase still bound, per cent of control (CLK2 (human)): 74%
kinase still bound, per cent of control (MAP3K10 (human)): 100%
kinase still bound, per cent of control (PLK2 (human)): 98%
kinase still bound, per cent of control (NEK9 (human)): 100%
kinase still bound, per cent of control (PAK2 (human)): 82%
kinase still bound, per cent of control (PDGFRA (human)): 92%
kinase still bound, per cent of control (CRK2 (P.falciparum)): 100%
kinase still bound, per cent of control [1]: 83%
kinase still bound, per cent of control (PHKG2 (human)): 100%
kinase still bound, per cent of control (EPHA7 (human)): 93%
kinase still bound, per cent of control (PIM2 (human)): 89%
kinase still bound, per cent of control (VRK2 (human)): 100%
kinase still bound, per cent of control (NEK11 (human)): 99%
kinase still bound, per cent of control (RPS6KA4 KD2 (human)): 90%
kinase still bound, per cent of control (DCLK1 (human)): 89%
kinase still bound, per cent of control (RAF1 (human)): 100%
kinase still bound, per cent of control (FER (human)): 100%
kinase still bound, per cent of control (MST1R (human)): 100%
kinase still bound, per cent of control (NEK6 (human)): 96%
kinase still bound, per cent of control (MAPK12 (human)): 100%
kinase still bound, per cent of control (RPS6KA6 KD2 (human)): 86%
kinase still bound, per cent of control (PIK3CB (human)): 39%
kinase still bound, per cent of control (FLT1 (human)): 89%
kinase still bound, per cent of control (CDK7 (human)): 80%
kinase still bound, per cent of control (SRC (human)): 94%
kinase still bound, per cent of control (NTRK3 (human)): 100%
kinase still bound, per cent of control (DCLK3 (human)): 99%
kinase still bound, per cent of control [2]: 95%
kinase still bound, per cent of control (CDK2 (human)): 93%
kinase still bound, per cent of control (CAMK2G (human)): 100%
kinase still bound, per cent of control (ULK3 (human)): 100%
kinase still bound, per cent of control (MYLK4 (human)): 81%
kinase still bound, per cent of control (INSRR (human)): 97%
kinase still bound, per cent of control (MAPK4 (human)): 87%
kinase still bound, per cent of control (ERBB4 (human)): 98%
kinase still bound, per cent of control (PAK7 (human)): 100%
kinase still bound, per cent of control (CAMKK1 (human)): 97%
kinase still bound, per cent of control (CSNK1A1L (human)): 89%
